Reference: patent US6369069B1 (Aventis Pharma Deutschland GmbH, priority 1998, dated 2002)

Test system: Na^+-dependent Cl^−/HCO3^− exchanger (NCBE)
Experiment: Inhibition of the Na+-dependent Cl−/HCO3− exchanger (NCBE) in human endothelial cells (pHi recovery, BCECF fluorescence, FLIPR)
Type: cell-based
Details: 10 μM
How it was run: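 Fluorescence rise (FLIPR, 2 min, 35 °C) tracked pHi recovery in acid-loaded, BCECF-loaded ECV-304 cells after adding Na+- and HCO3−-containing buffer with 50 μM HOE 642 and graded compound doses. Inhibition was calculated against full-recovery and bicarbonate-free no-recovery controls.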

Going from N#CNS(=O)(=O)c1ccccc1-c1ccc(CN(Cc2nc3ccccc3[nH]2)C(=O)Cc2c[nH]c3ccccc23)cc1 [Example 208] to N#CNS(=O)(=O)c1ccccc1-c1ccc(CN(Cc2nc3ccccc3[nH]2)C(=O)Cc2ccsc2)cc1 [Example 232], the “Residual activity % of the NCBE at 10 μM” value rises from 50.7% to 62.6%.

Going from N#CNS(=O)(=O)c1ccccc1-c1ccc(CN(Cc2ccccn2)C(=O)CCCc2cccs2)cc1 [Example 188] to N#CNS(=O)(=O)c1ccccc1-c1ccc(CN(CCCc2ccccc2)C(=O)CCCCc2cccs2)cc1 [Example 218], the “Residual activity % of the NCBE at 10 μM” value rises from 52.3% to 87.1%.

Going from N#CNS(=O)(=O)c1ccccc1-c1ccc(CN(Cc2ccccc2)C(=O)Cc2cccs2)cc1 [Example 25] to Cc1cccc(CN(Cc2ccc(-c3ccccc3S(=O)(=O)NC#N)cc2)C(=O)Cc2cccs2)c1 [Example 311], the “Residual activity % of the NCBE at 10 μM” value falls from 16.6% to 10.4%.

Compared with COc1ccc(CCN(Cc2ccc(-c3ccccc3S(=O)(=O)NC#N)cc2)C(=O)c2ccccc2F)cc1 [Example 100], COc1ccc(CCN(Cc2ccc(-c3ccccc3S(=O)(=O)NC#N)cc2)C(=O)Cc2ccccc2)cc1 [Example 130] is lower in “Residual activity % of the NCBE at 10 μM” value: 94.1% for the first, 77.8% for the second.

Going from N#CNS(=O)(=O)c1ccccc1-c1ccc(CN(Cc2cccs2)C(=O)CCC2CCCCC2)cc1 [Example 255] to N#CNS(=O)(=O)c1ccccc1-c1ccc(CN(Cc2ccccc2)C(=O)CCC2CCCCC2)cc1 [Example 7], the “Residual activity % of the NCBE at 10 μM” value falls from 61.0% to 33.0%.

Compared with N#CNS(=O)(=O)c1ccccc1-c1ccc(CN(Cc2ccc(Cl)cc2Cl)C(=O)Cc2cccs2)cc1 [Example 270], N#CNS(=O)(=O)c1ccccc1-c1ccc(CN(Cc2ccc(Cl)cc2Cl)C(=O)Cc2ccccc2Br)cc1 [Example 276] is higher in “Residual activity % of the NCBE at 10 μM” value: 33.9% for the first, 36.8% for the second.

Going from C[C@@H](c1ccccc1)N(Cc1ccc(-c2ccccc2S(=O)(=O)NC#N)cc1)C(=O)Cc1ccccc1 [Example 123] to C[C@H](c1ccccc1)N(Cc1ccc(-c2ccccc2S(=O)(=O)NC#N)cc1)C(=O)Cc1cccs1 [Example 133], the “Residual activity % of the NCBE at 10 μM” value falls from 72.2% to 40.9%.

Compared with CC(=O)N(Cc1ccc(-c2ccccc2S(=O)(=O)NC#N)cc1)Cc1ccccc1Cl [Example 181], N#CNS(=O)(=O)c1ccccc1-c1ccc(CN(CCO)C(=O)c2ccccc2Cl)cc1 [Example 56] is lower in “Residual activity % of the NCBE at 10 μM” value: 80.8% for the first, 69.0% for the second.

First: N#CNS(=O)(=O)c1ccccc1-c1ccc(CN(Cc2ccccc2Cl)C(=O)c2ccccc2F)cc1 [Example 91]
Second: COc1ccccc1C(=O)N(Cc1ccc(-c2ccccc2S(=O)(=O)NC#N)cc1)Cc1cccc(Cl)c1Cl [Example 329]
The “Residual activity % of the NCBE at 10 μM” value of the first is higher: 62.7% for the first, 25.7% for the second.

First: CCCC(=O)N(Cc1ccc(-c2ccccc2S(=O)(=O)NC#N)cc1)C1CCCCC1 [Example 6]
Second: COc1cccc(CC(=O)N(Cc2ccc(-c3ccccc3S(=O)(=O)NC#N)cc2)C2CCCCC2)c1 [Example 24]
The “Residual activity % of the NCBE at 10 μM” value of the first is lower: 84.5% for the first, 92.1% for the second.

First: N#CNS(=O)(=O)c1ccccc1-c1ccc(CN(Cc2ccc3ccccc3c2)C(=O)CC2CCCC2)cc1 [Example 360]
Second: Cc1cccc(CN(Cc2ccc(-c3ccccc3S(=O)(=O)NC#N)cc2)C(=O)CC2CCCC2)c1 [Example 361]
The “Residual activity % of the NCBE at 10 μM” value of the first is higher: 36.9% for the first, 29.4% for the second.

First: N#CNS(=O)(=O)c1ccccc1-c1ccc(CN(CC2CCCCC2)C(=O)Cc2ccccc2[N+](=O)[O-])cc1 [Example 257]
Second: N#CNS(=O)(=O)c1ccccc1-c1ccc(CN(Cc2ccccc2F)C(=O)CC2CCCCC2)cc1 [Example 356]
The “Residual activity % of the NCBE at 10 μM” value of the first is higher: 54.6% for the first, 47.4% for the second.

Compared with COc1ccc(CC(=O)N(Cc2ccc(F)cc2)Cc2ccc(-c3ccccc3S(=O)(=O)NC#N)cc2)cc1 [Example 177], COc1ccc(CCN(Cc2ccc(-c3ccccc3S(=O)(=O)NC#N)cc2)C(=O)c2cccs2)cc1 [Example 90] is higher in “Residual activity % of the NCBE at 10 μM” value: 64.4% for the first, 84.2% for the second.

Going from N#CNS(=O)(=O)c1ccccc1-c1ccc(CN(Cc2ccc(Cl)c(Cl)c2)C(=O)C(=O)c2ccco2)cc1 [Example 263] to N#CNS(=O)(=O)c1ccccc1-c1ccc(CN(Cc2ccc(Cl)c(Cl)c2)C(=O)CCC2CCCCC2)cc1 [Example 264], the “Residual activity % of the NCBE at 10 μM” value rises from 54.0% to 74.3%.

Going from CCN(Cc1ccc(-c2ccccc2S(=O)(=O)NC#N)cc1)C(=O)Cc1cccs1 [Example 240] to COCCN(Cc1ccc(-c2ccccc2S(=O)(=O)NC#N)cc1)C(=O)Cc1cccs1 [Example 237], the “Residual activity % of the NCBE at 10 μM” value falls from 58.0% to 50.3%.

Compared with CC(=O)N(Cc1ccc(-c2ccccc2S(=O)(=O)NC#N)cc1)CC1CC1 [Example 182], N#CNS(=O)(=O)c1ccccc1-c1ccc(CN(CCO)C(=O)C2CCCCC2)cc1 [Example 14] is higher in “Residual activity % of the NCBE at 10 μM” value: 74.9% for the first, 88.7% for the second.

Going from COC(=O)C(Cc1ccccc1)N(Cc1ccc(-c2ccccc2S(=O)(=O)NC#N)cc1)C(=O)Cc1c[nH]c2ccccc12 (centres unmarked) [Example 209] to N#CNS(=O)(=O)c1ccccc1-c1ccc(CN(Cc2ccccc2)C(=O)c2ccccc2)cc1 [Example 61], the “Residual activity % of the NCBE at 10 μM” value rises from 56.2% to 56.6%.

Going from CCCCC(=O)N(Cc1ccc(Cl)cc1)Cc1ccc(-c2ccccc2S(=O)(=O)NC#N)cc1 [Example 65] to N#CNS(=O)(=O)c1ccccc1-c1ccc(CN(Cc2ccc(Cl)cc2)C(=O)C2CCCCC2)cc1 [Example 16], the “Residual activity % of the NCBE at 10 μM” value falls from 80.0% to 56.4%.

Compared with C#CCN(Cc1ccc(-c2ccccc2S(=O)(=O)NC#N)cc1)C(=O)CCCCc1ccccc1 [Example 247], COCCC(=O)N(Cc1ccc(-c2ccccc2S(=O)(=O)NC#N)cc1)Cc1cccc(Cl)c1Cl [Example 319] is lower in “Residual activity % of the NCBE at 10 μM” value: 74.6% for the first, 38.0% for the second.

Compared with CC(C)=CCCC(C)=CCN(Cc1ccc(-c2ccccc2S(=O)(=O)NC#N)cc1)C(=O)CC1CCCC1 [Example 363], N#CNS(=O)(=O)c1ccccc1-c1ccc(CN(Cc2cccc(Cl)c2Cl)C(=O)CC2CCCC2)cc1 [Example 359] is lower in “Residual activity % of the NCBE at 10 μM” value: 48.3% for the first, 37.9% for the second.

Compared with COc1ccccc1CN(Cc1ccc(-c2ccccc2S(=O)(=O)NC#N)cc1)C(=O)c1cccs1 [Example 84], COc1ccccc1CN(Cc1ccc(-c2ccccc2S(=O)(=O)NC#N)cc1)C(=O)C(c1ccccc1)c1ccccc1 [Example 114] is higher in “Residual activity % of the NCBE at 10 μM” value: 54.7% for the first, 81.7% for the second.

First: C[C@@H](c1ccccc1)N(Cc1ccc(-c2ccccc2S(=O)(=O)NC#N)cc1)C(=O)c1ccccc1F [Example 93]
Second: COc1ccccc1C(=O)N(Cc1ccc(-c2ccccc2S(=O)(=O)NC#N)cc1)Cc1cccc(-c2ccccc2)c1 [Example 337]
The “Residual activity % of the NCBE at 10 μM” value of the first is higher: 92.9% for the first, 51.2% for the second.

First: N#CNS(=O)(=O)c1ccccc1-c1ccc(CN(Cc2cccc(-c3ccccc3)c2)C(=O)Cc2cccs2)cc1 [Example 317]
Second: N#CNS(=O)(=O)c1ccccc1-c1ccc(CN(Cc2cccs2)C(=O)C(NC(=O)OCc2ccccc2)c2ccccc2)cc1 (centres unmarked) [Example 251]
The “Residual activity % of the NCBE at 10 μM” value of the first is lower: 14.5% for the first, 83.9% for the second.

First: N#CNS(=O)(=O)c1ccccc1-c1ccc(CN(Cc2ccc(Cl)cc2Cl)C(=O)CCS(=O)(=O)c2ccccc2)cc1 [Example 279]
Second: N#CNS(=O)(=O)c1ccccc1-c1ccc(CN(Cc2cccc3ccccc23)C(=O)Cc2ccc(O)cc2)cc1 [Example 284]
The “Residual activity % of the NCBE at 10 μM” value of the first is higher: 90.5% for the first, 52.9% for the second.

Compared with N#CNS(=O)(=O)c1ccccc1-c1ccc(CN(Cc2ccc(C(F)(F)F)cc2)C(=O)c2ccccc2Cl)cc1 [Example 109], CC(C)(C)c1ccc(C(=O)N(CCO)Cc2ccc(-c3ccccc3S(=O)(=O)NC#N)cc2)cc1 [Example 32] is lower in “Residual activity % of the NCBE at 10 μM” value: 75.4% for the first, 68.0% for the second.

First: COCCC(=O)N(Cc1ccc(-c2ccccc2S(=O)(=O)NC#N)cc1)CC1CCCO1 (centres unmarked) [Example 328]
Second: N#CNS(=O)(=O)c1ccccc1-c1ccc(CN(C(=O)C(=O)c2cccs2)C2CC2)cc1 [Example 197]
The “Residual activity % of the NCBE at 10 μM” value of the first is higher: 87.0% for the first, 79.9% for the second.

With N#CNS(=O)(=O)c1ccccc1-c1ccc(CN(CCc2ccc(S(N)(=O)=O)cc2)C(=O)Cc2cccs2)cc1 [Example 272] the “Residual activity % of the NCBE at 10 μM” value was 65.0%.

Same assay, conditions: compound at 10 μM; R(3) to R(7) hydrogen series

Going from CCC(CC)(CN(Cc1ccc(-c2ccccc2S(=O)(=O)NC#N)cc1)C(=O)Cc1cccs1)c1ccc(OC)cc1 [Example 395] to CC(C(=O)N(Cc1ccc(-c2ccccc2S(=O)(=O)NC#N)cc1)Cc1cccc2ccccc12)c1cccs1 (centres unmarked) [Example 390], the “Residual activity % of the NCBE at 10 μM” value rises from 50.9% to 89.8%.

Same assay, conditions: compound at 10 μM; sub-table with R7 substituent

Compared with Cc1ccc(-c2ccc(CN(Cc3ccccc3)C(=O)Cc3cccs3)cc2)c(S(=O)(=O)NC#N)c1 [Example 513], Cc1ccc(-c2ccc(CN(CCc3ccccc3)C(=O)Cc3cccs3)cc2)c(S(=O)(=O)NC#N)c1 [Example 518] is higher in “Residual activity % of the NCBE at 10 μM” value: 88.6% for the first, 93.5% for the second.

Going from Cc1ccc(-c2ccc(CN(Cc3cccc(Cl)c3Cl)C(=O)Cc3cccs3)cc2)c(S(=O)(=O)NC#N)c1 [Example 520] to Cc1ccc(-c2ccc(CN(Cc3cccs3)C(=O)Cc3ccc(Cl)cc3)cc2)c(S(=O)(=O)NC#N)c1 [Example 533], the “Residual activity % of the NCBE at 10 μM” value falls from 85.9% to 75.5%.

Going from Cc1ccc(-c2ccc(CN(Cc3cccs3)C(=O)CC3CCCCC3)cc2)c(S(=O)(=O)NC#N)c1 [Example 549] to Cc1ccc(-c2ccc(CN(Cc3ccccc3F)C(=O)CC3CCCCC3)cc2)c(S(=O)(=O)NC#N)c1 [Example 551], the “Residual activity % of the NCBE at 10 μM” value rises from 67.3% to 82.6%.

Cc1ccc(-c2ccc(CN(Cc3ccccc3)C(=O)Cc3ccsc3)cc2)c(S(=O)(=O)NC#N)c1 [Example 537] was tested, and the “Residual activity % of the NCBE at 10 μM” value was 54.4%.
